Test [1] has as its system NF-κB p65 in LPS-stimulated RAW264.7 cells. Put plainly: NF-κB nuclear translocation, immunocytochemistry. Format: cell-based, mouse. The following applies: pre-treatment 2 h prior to LPS 1 µg/mL for 16 h. The procedure: RAW264.7 cells cultured on round cover slips coated with poly-L-lysine were treated with triterpenoids (1 or 3 µg/mL) 2 h prior to LPS treatment, followed by LPS (1 µg/mL) for 16 h. The cells were washed with 1 x phosphate buffered saline (PBS) and fixed with 4% paraformaldehyde for 30 min. After washing the fixed cells with PBS, the cells were permeabilized with a blocking buffer (1% normal goat serum and 0.2% Triton X-100 in PBS) for 30 min at room temperature, and were incubated with an anti-NF-κB p65 antibody (1:200 dilution, Cell Signaling Technology, Danvers, MA, USA) at 4 °C overnight. After three washes in PBS, the cells were incubated in the dark for 1 h with the mixture of FITC-conjugated anti-rabbit IgG fluorescent secondary antibody diluted at 1:500 in PBS. Finally, the cells were stained with 2 µg/mL Hoechst for nuclei staining. The cells were washed with PBS, wet-mounted on glass slides, and observed using a confocal laser-scanning microscope (Olympus, Tokyo, Japan). The negative control (NC) was analyzed by omitting the primary antibody.

Test [2] deals with T1, Human neutrophil elastase (HNE, EC 3.4.21.37) (Homo sapiens, UniProt P08246).
T1 construct: purchased Sigma-Aldrich
T1 sequence (P08246 30-267): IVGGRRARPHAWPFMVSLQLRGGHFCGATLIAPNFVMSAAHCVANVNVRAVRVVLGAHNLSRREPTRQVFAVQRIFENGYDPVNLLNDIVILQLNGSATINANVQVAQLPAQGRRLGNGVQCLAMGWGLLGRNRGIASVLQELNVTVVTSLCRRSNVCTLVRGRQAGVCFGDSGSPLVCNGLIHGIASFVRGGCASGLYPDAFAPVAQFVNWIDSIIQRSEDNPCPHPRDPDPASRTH
Kind of test: Human neutrophil elastase inhibition, spectrophotometric, MeOSuc-AAPV-pNA substrate. Type of test: biochemical. The procedure:
Human neutrophil elastase (EC 3. 4. 21. 37) (Sigma-Aldrich, St. Louis, MO, USA) activity was measured in accordance with the previous description with subtle modification, by observing the formation of p-nitroaniline after the hydrolysis of N-methoxysuccinyl-Ala-Ala-Pro-Val-p-nitro anilide at 405 nm. The inhibitors were dissolved in dimethyl sulfoxide (DMSO) and diluted to a few concentrations. In brief, in a 96-well plate, 10 µL of inhibitor solution and 40 µL of 1.5 mM of MeOSuc-AAPV-pNA were added as a substrate in the 0.02 mM Tris-HCl buffer solutions (pH 8.0). Then, 20 µL of human neutrophil elastase (0.2 unit/mL) was added to the mixture. The test mixtures were incubated and mixed for 15 min at room temperature and then screened at 405 nm for 30 min every 30 s.
Activity (%) = 100 [1/(1 + ([I]/IC50))].(1)
The modalities of HNE inhibition were estimated in experiments using particular concentrations of the substrates and inhibitors, respectively. The Michaelis–Menten constant (Km) and maximal velocity (Vmax) were investigated by a Lineweaver–Burk plot. The KI, dissociation constants for inhibitor binding to the free enzyme were calculated using a Dixon plot. Equations (2)–(4) are representatives for deriving the aforementioned parameters. (2) 1/V=Km/Vmax(1+[I]/Ki)×1/S+1/Vmax (3) Slop=Km/KiVmax[I]+Km/Vmax (4) Intercept=1/KiVmax[I]+1/Vmax.

Test [3] concerns the target T2, Human neutrophil elastase (HNE) (Homo sapiens, UniProt P08246).
T2 construct: purchased Sigma-Aldrich
T2 sequence (P08246 30-267): T1 sequence (P08246 30-267)
Put plainly: Fluorescence quenching binding affinity to HNE. The following applies: inhibitor 7.8–31.2 µM. The procedure: To measure fluorescence from the HNE enzyme, 10 μL of 0.01 unit/mL enzyme solution with 180 μL of Tris-HCl buffer (0.02 mM) was accurately added into the 96-well black immunoplates. Then, 10 μL of incremental concentrations (7.8–31.2 μΜ) of inhibitors were added into each well. All fluorescence spectra were measured from 280 to 400 nm with emission slits regulated to 2.0 nm, and the excitation wavelength was 260 nm. The Stern–Volmer quenching constant (KSV) was calculated using Equation (5). All experiments were conducted in triplicate, and the mean values were calculated. (5) […]=1+KSV[Q], where F0 and F are the fluorescence intensities in the absence and presence of quencher (Q). KSV is the Stern–Volmer quenching constant [LM^−1]. For static quenching, the correlation between the fluorescence intensity and the concentration of quencher for the series of reactions can be estimated by Equation (6). (6) log[(F0−F)/F]=logKA+nlog[Q]f.
F0 and F are the fluorescence intensities in the absence and presence of inhibitor; KA is the binding constant; n is the number of binding sites of the enzyme; Qf is the concentration of inhibitor.

Turning to `CC(C)(C)c1ccc(S(=O)(=O)/C=C/C#N)cc1` [Bay 11-7085, reference compound], in test [1], the “NF-κB translocation to the nucleus (immunocytochemical staining)” value is recorded as “suppressed”.
In the case of `COC1OC(C=C(C)C=CC=C(C)CCC=C(C)C)CC12C(CCCO)C(=C(C)C=O)CCC2(C)O` (centres unmarked) [Compound 3, iridobelamal B], in test [2] (Dixon plots, read-out: Ki (inhibition constant)), the Ki (commonly a measure of affinity in units of concentration, obtained from inhibition or displacement) was determined as 6.2 µM. For the same compound, the “Type of Inhibition” value in test [2] (Lineweaver-Burk and Dixon plots, reversibility from activity vs enzyme concentration plots) is listed as “noncompetitive inhibitor”. For the same compound, the “fold better HNE inhibition than monocyclic compounds (1 and 2)” value in test [2] (compared with compounds 1 and 2) was 2–3 fold. Besides, in test [2] (concentration that caused 50% enzyme activity loss, three sets of experiments), it took 6.8 ± 0.3 µM to reach half-maximal inhibition (IC50). In addition, the “n (number of binding sites of the enzyme)” value in test [3] is listed as 0.9727. For the same compound, in test [3] (read-out: KA (association constant of the complex of enzyme and quencher) (converted)), the Kd was 13.5 µM. In addition, the “KSV (Stern-Volmer quenching constant)” value in test [3] (λEx 260 nm, λEm 280–400 nm) was determined as 67640 L/mol.

Source of the values: paper PMC8588536, “Iridal-Type Triterpenoids Displaying Human Neutrophil Elastase Inhibition and Anti-Inflammatory Effects from Belamcanda chinensis” (Molecules, 2021).
